Columns and labels:
Acetylcholinesterase = molecular target: T1, Acetylcholinesterase (Rattus norvegicus, UniProt P37136); assay: Inhibitory activity against rat brain total Acetylcholinesterase (AChE) was determined using Ellman's method
T1 sequence (P37136 whole entry): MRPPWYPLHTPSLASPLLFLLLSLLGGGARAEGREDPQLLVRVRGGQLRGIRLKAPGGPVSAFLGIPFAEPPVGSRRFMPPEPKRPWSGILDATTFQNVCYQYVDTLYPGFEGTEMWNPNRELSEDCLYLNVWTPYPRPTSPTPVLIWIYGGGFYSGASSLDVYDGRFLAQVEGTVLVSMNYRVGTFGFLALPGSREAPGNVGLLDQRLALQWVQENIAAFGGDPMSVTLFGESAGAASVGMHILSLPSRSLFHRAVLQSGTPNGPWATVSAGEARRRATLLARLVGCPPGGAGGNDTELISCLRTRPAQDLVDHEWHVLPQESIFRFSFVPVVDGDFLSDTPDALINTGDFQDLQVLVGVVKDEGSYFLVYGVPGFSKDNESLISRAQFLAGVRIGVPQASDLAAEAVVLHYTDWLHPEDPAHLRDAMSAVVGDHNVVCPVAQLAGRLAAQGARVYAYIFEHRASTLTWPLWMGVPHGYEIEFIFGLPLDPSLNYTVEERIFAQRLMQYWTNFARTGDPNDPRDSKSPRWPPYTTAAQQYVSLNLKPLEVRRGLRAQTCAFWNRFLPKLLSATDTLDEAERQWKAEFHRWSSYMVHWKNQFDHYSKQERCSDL

Butyrylcholinesterase = Butyrylcholinesterase (Rattus norvegicus, UniProt Q9JKC1)
Sequence of Butyrylcholinesterase (Q9JKC1 whole entry): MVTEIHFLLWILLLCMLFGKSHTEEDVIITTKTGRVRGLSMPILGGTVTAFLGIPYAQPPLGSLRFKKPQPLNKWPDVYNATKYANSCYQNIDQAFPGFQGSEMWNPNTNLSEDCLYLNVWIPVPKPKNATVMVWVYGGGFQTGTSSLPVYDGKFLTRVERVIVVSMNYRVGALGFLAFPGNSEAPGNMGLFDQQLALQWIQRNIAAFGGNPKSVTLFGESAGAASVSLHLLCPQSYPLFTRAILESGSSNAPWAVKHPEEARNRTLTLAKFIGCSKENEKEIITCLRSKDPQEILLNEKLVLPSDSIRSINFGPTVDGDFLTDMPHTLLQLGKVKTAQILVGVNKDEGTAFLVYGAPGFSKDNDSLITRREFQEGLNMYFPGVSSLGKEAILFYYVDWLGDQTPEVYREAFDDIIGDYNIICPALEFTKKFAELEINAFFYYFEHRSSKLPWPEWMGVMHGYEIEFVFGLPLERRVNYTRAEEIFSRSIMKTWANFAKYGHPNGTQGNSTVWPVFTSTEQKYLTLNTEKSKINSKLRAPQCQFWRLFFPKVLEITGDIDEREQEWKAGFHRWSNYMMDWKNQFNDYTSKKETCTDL
Description: Inhibitory concentration against rat brain butyrylcholinesterase (BuChE) was determined using Ellman's method

In the case of `Cc1nn(-c2ccccc2)c2c(N)c3c(nc12)CCC3`, the IC50 (Acetylcholinesterase) is reported as 32.2 µM.

`Nc1c2c(nc3nn(-c4ccccc4)cc13)CCCC2` gave an IC50 (Butyrylcholinesterase) of 31.9 µM and an IC50 (Acetylcholinesterase) of 6.01 µM.

`Cc1nn(-c2ccccc2)c2nc3c(c(N)c12)CCC3` showed an IC50 (Acetylcholinesterase) of 31.2 µM.

`Cc1nn(-c2ccccc2)c2nc3nc4c(c(N)c3cc12)CCC4` showed an IC50 (Acetylcholinesterase) of 23.2 µM.

`Cc1nn(-c2ccccc2)c2nc3c(c(N)c12)CCCC3` showed an IC50 (Acetylcholinesterase) of 28.5 µM.

With `Cc1nn(-c2ccccc2)c2c(N)c3c(nc12)CCCC3` the IC50 (Acetylcholinesterase) was 26.7 µM.

For `COc1ccc2c3c1C[C@H]1C[C@@H](O)C=C[C@]31CCN(C)C2`, the IC50 (Acetylcholinesterase) was 3.1 µM.

Compound `Cc1nn(-c2ccccc2)c2nc3nc4c(c(N)c3cc12)CCCC4` has an IC50 (Butyrylcholinesterase) of 134 µM and an IC50 (Acetylcholinesterase) of 6.39 µM.

Reference: ChEMBL document CHEMBL1136738, “Design, synthesis, and pharmacological profile of novel fused pyrazolo[4,3-d]pyridine and pyrazolo[3,4-b][1,8]naphthyridine isosteres: a new class of potent and selective acetylcholinesterase inhibitors” (J Med Chem, 2003)
